Measured values from PMC12096834, “Antimicrobial peptide plectasin recombinantly produced in Escherichia coli disintegrates cell walls of gram-positive bacteria, as proven by transmission electron and atomic force microscopy” (Journal of Bacteriology, 2025).

How the values were obtained:
[1] = published findings; 59 (Mygind et al. 2005); cited from earlier work
[2] = test system: Enterococcus faecalis; experiment: AFM cell thickness, stiffness and roughness; assay type: cell-based; details: plectasin 4 x MIC, CASPON-plectasin same molar quantity, mean ± SD of 20 measurements; for Stiffness: AFM force spectroscopy, untreated 8.0 ± 3.7
Description: (§1) All AFM measurements were performed on a Vecoo-Bruker AFM (Diamond, Chilton, UK), including imaging and force distance measurement. Before and after measurements, the triangular cantilever was cleaned with EtOH and acetone. Sensitivity and the spring constant were calibrated by the thermal tune method by making use of the equipartition theorem, preceded by continued ramping. After calibration, the spring constant was set to 0.4017 N/m for performing measurements.
(§2) Bacterial suspensions were prepared by taking bacterial colonies out of overnight grown agar plates and resuspending them in MHB. The suspension was set to an OD625 extinction of 0.15–0.20 corresponding to a bacterial cell density of approximately 2 × 10^8 CFU/mL. Then, 3 × 1 mL of suspension was transferred into a 2-mL reaction tube and mixed with either plectasin, CASPON-plectasin, or PBS buffer to obtain volume conditions. The concentration for plectasin was 4 x MIC, and CASPON-plectasin was of the same molar quantity as plectasin. After incubation, the bacterial suspensions were washed with PBS three times, using mild centrifugation conditions for each wash cycle (3,000 g, 15 minutes) to avoid cell damage. The washed bacterial suspension was transferred to borosilicate glass slides (24 mm diameter, 0.1 mm thickness, Menzel Gläser, Braunschweig, Germany) and left to adhere to the surface (electrostatics) for 1 hour. Afterward, the slides were washed with MilliQ water and transferred to AFM.
(§3) Bacterial images were visualized by square areas of 2 × 2 µm^2 up to 25 × 25 µm^2 with a resolution of 512 × 512 pixels. At least 15 images were taken per sample with different square dimensions for proper visualization. Surface roughness and shapes of the bacterial cell were estimated using Gwyddion software after applying a mean filter to the raw images. A total of 20 measurements were taken on cells for each parameter, providing enough values for statistical evaluation. For additional information and an illustration of the determination principle, please refer to the supplementary material (Fig. S3), which includes an example on S. aureus. By using the following equations, the surface roughness of a selected area of this flattened area was calculated from the standard deviation in the height image. The mean roughness (Ra) and the root-mean-square roughness (Rq or RMS) were used to characterize the surface of different samples:
(§4) After the position of the bacteria was determined, force spectroscopy was performed. Measurement of the central region of bacteria was performed with an approach speed of 10 µm/s and a maximum force of 2 nN. A curve length of 1 µm and a sampling rate of 2 kHz were used. At least 20 bacteria per sample were measured. Analysis of the force distance curves was performed using the software NanoScope Analysis 1.5. For calculating the stiffness of each bacterial cell, the following question was utilized:
(§5) where keff is the effective stiffness (received from the slope of the measured curve), ksample is the stiffness of the sample (bacterial cell), and kspring is the spring constant (0.4017 N/m). All constants have the unit N/m. Rearrangement of the formula leads to the following relation: […]
(§6) Measurements were pooled, and properties were calculated as described above. For each parameter, 20 measurements were used to obtain appropriate statistical values. Analysis of variance (ANOVA) was performed, followed by Student’s t-test, which is a statistical procedure that compares the averages of two independent groups (plectasin/CASPON-plectasin treated vs untreated) to determine significance in the surface roughness and stiffness of bacteria. Significances are indicated in figures and reported as “ns” for P > 0.05, “*” for P ≤ 0.05, “**” for P ≤ 0.01, and “***” for P ≤ 0.001.

[3] = test system: Listeria monocytogenes; experiment: AFM cell thickness, stiffness and roughness; assay type: cell-based; details: plectasin 4 x MIC, CASPON-plectasin same molar quantity, mean ± SD of 20 measurements; for Stiffness: AFM force spectroscopy, untreated 5.4 ± 3.1
Description: as §1, §2, §3, §4, §5, §6

[4] = test system: Streptococcus pneumoniae; experiment: AFM cell thickness, stiffness and roughness; assay type: cell-based; details: plectasin 4 x MIC, CASPON-plectasin same molar quantity, mean ± SD of 20 measurements; for Stiffness: AFM force spectroscopy, untreated 6.2 ± 2.4
Description: as §1, §2, §3, §4, §5, §6

[5] = test system: Staphylococcus aureus; experiment: AFM cell thickness, stiffness and roughness; assay type: cell-based; details: plectasin 4 x MIC, CASPON-plectasin same molar quantity, mean ± SD of 20 measurements; for Stiffness: AFM force spectroscopy, untreated 5.3 ± 2.3
Description: as §1, §2, §3, §4, §5, §6

In the case of CC[C@H](C)[C@@H]1NC(=O)[C@H](CO)NC(=O)[C@H](CCCCN)NC(=O)[C@@H]2CSSC[C@@H](C(=O)N[C@@H](Cc3ccc(O)cc3)C(=O)O)NC(=O)[C@H](CCCCN)NC(=O)[C@@H]3CSSC[C@H](NC(=O)[C@H](CCC(N)=O)NC(=O)[C@H](CCSC)NC(=O)[C@H](CC(=O)O)NC(=O)[C@H](CC(=O)O)NC(=O)[C@H](CCC(=O)O)NC(=O)[C@H](CC(=O)O)NC(=O)[C@H](Cc4c[nH]c5ccccc45)NC(=O)[C@@H]4CCCN4C(=O)CNC(=O)[C@H](CC(N)=O)NC(=O)[C@@H](NC(=O)CNC(=O)[C@H](Cc4ccccc4)NC(=O)CN)CSSC[C@H](NC(=O)[C@H](Cc4ccc(O)cc4)NC(=O)CNC(=O)CNC(=O)[C@H](CCCCN)NC(=O)[C@H](Cc4ccc(O)cc4)NC(=O)CNC(=O)[C@H](CCCCN)NC1=O)C(=O)N[C@@H](C)C(=O)N[C@@H](CCCCN)C(=O)NCC(=O)NCC(=O)N[C@@H](Cc1ccccc1)C(=O)N[C@@H](C(C)C)C(=O)N3)C(=O)N[C@@H](Cc1c[nH]cn1)C(=O)N[C@@H](CC(N)=O)C(=O)N[C@@H](Cc1c[nH]cn1)C(=O)N2 [Plectasin, plectasin], the “maximum solubility of plectasin” value [1] is listed as ~ 1.6 g/L, the Stiffness [2] is listed as “approximately 4 N/m” and the Stiffness ([2]; SD) is listed as 4.6 ± 1.9 N/m. For the same compound, the “Ra (mean roughness)” value ([2]; AFM, untreated 10.0 ± 2.5, SD) was 19.4 ± 3.2 nm, the “Rq (root-mean-square roughness)” value ([2]; AFM, untreated 12.2 ± 3.4, SD) was 23.5 ± 3.4 nm and the Cell thickness ([2]; AFM, untreated 480.3 ± 30.6, SD) was 473.5 ± 47.5 nm. For the same compound, the Stiffness [3] was “approximately 4 N/m”, the Stiffness ([3]; SD) was 3.5 ± 1.4 N/m and the “Ra (mean roughness)” value ([3]; AFM, untreated 8.1 ± 2.5, SD) was 13.5 ± 2.4 nm. The “Rq (root-mean-square roughness)” value ([3]; AFM, untreated 11.2 ± 3.4, SD) was 16.9 ± 2.8 nm, the Cell thickness ([3]; AFM, untreated 297.0 ± 13.3, SD) was 297.8 ± 14.0 nm and the Stiffness [4] was “approximately 4 N/m”. For the same compound, the Stiffness ([4]; SD) was 4.7 ± 1.1 N/m, the “Ra (mean roughness)” value ([4]; AFM, untreated 15.5 ± 4.2, SD) was 19.7 ± 5.3 nm and the “Rq (root-mean-square roughness)” value ([4]; AFM, untreated 18.8 ± 4.8, SD) was 24.5 ± 6.0 nm. The Cell thickness ([4]; AFM, untreated 375.8 ± 28.4, SD) was 366.0 ± 54.1 nm, the Stiffness [5] was “approximately 4 N/m” and the Stiffness ([5]; SD) was 3.7 ± 1.7 N/m. The “Ra (mean roughness)” value ([5]; AFM, untreated 19.4 ± 3.5, SD) was 24.76 ± 6.7 nm, the “Rq (root-mean-square roughness)” value ([5]; AFM, untreated 24.0 ± 4.4, SD) was 30.9 ± 8.0 nm and the Cell thickness ([5]; AFM, untreated 485.9 ± 26.5, SD) was 467.2 ± 45.1 nm.
